# Measurements reported in patent EP0838471A1, “PEPTIDE DERIVATIVES AND ANGIOTENSIN IV RECEPTOR AGONIST” (SAGAMI CHEMICAL RESEARCH CENTER, priority 1995, dated 1997).
# Where a name gives a salt, the structure may show the parent alone.
# Biological target: T1, angiotensin IV receptor (Cavia porcellus, UniProt H0VNM7)
# T1 sequence (H0VNM7 1-1025): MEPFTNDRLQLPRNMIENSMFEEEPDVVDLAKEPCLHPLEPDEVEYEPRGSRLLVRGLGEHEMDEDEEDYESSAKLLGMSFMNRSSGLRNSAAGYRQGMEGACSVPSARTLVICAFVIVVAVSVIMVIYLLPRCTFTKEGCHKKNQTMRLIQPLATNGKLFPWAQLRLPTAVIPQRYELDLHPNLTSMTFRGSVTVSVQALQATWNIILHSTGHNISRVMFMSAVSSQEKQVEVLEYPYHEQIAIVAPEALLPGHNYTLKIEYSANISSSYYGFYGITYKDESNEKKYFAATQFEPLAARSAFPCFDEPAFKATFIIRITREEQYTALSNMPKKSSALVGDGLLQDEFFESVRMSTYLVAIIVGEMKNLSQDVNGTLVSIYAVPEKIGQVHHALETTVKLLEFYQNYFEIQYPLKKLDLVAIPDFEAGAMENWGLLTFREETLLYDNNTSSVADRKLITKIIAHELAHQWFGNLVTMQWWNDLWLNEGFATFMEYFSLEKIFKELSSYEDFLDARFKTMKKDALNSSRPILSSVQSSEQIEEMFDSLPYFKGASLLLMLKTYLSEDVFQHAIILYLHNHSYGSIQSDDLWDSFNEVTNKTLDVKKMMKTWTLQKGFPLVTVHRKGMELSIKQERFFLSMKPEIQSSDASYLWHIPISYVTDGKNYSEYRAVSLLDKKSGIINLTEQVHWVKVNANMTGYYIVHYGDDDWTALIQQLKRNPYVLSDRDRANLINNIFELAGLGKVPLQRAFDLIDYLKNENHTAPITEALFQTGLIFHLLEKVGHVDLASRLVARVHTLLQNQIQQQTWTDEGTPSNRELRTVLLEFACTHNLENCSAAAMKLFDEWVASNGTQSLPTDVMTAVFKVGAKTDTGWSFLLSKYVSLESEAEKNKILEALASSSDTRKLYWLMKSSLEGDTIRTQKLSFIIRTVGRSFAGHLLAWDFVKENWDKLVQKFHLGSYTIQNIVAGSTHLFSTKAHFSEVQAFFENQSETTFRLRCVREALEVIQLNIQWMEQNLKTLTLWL
# Test: Binding to angiotensin IV receptor (125I-angiotensin IV displacement, crude membrane specimen)
# Settings: Hartley guinea pig hippocampus membrane; 0.2 nM 125I-angiotensin IV; 37°C for 90 minutes; nonspecific bond with 1 µM angiotensin IV
# Description: The capability of binding to angiotensin IV receptor was measured by using Hartley guinea pig hippocampus in accordance with the method reported by Miller-Wing et al., J. Pharmacol. Exp. Therp., 266:1718 (1993).
# The Hartley guinea pig hippocampus was homogenized in a 50 mM Tris hydrochloride buffer solution (pH 7.4) containing 1 mM of ethylenediamine-N,N,N',N'-tetraacetic acid (EDTA) and 100 µm of phenylmethanesufonyl fluoride (PMSF). After centrifuging at 900 × g, the supernatant thus obtained was further centrifuged at 48,000 × g. The precipitate was washed once with the same buffer solution and then the precipitate was suspended in a 50 mM Tris hydrochloride buffer solution (pH 7.4) containing 150 mM of sodium chloride, 1 mM of EDTA, 100 µm of PMSF and 0.1% of bovine serum albumin (BSA) in such a manner as to give a protein concentration of 50 µg/ml to thereby give a crude membrane specimen.
# This membrane specimen was allowed to react with 0.2 nM ^125I-angiotensin IV and a test compound dissolved in dimethyl sulfoxide at 37°C for 90 minutes. Then ^125I-angiotensin IV binding to the membrane was filtered under suction onto GF/B filer paper with the use of a cell harvester for laboratory use. The radioactivity on the filter paper was measured with a gamma-counter. The nonspecific bond was measured in the presence of 1 µM of angiotensin IV and the specific bond was calculated by subtracting the nonspecific bond from the total bond. The capability (IC50) of the test compound of binding to angiotensin IV receptor was determined as the concentration of the test compound capable of inhibiting the binding at an extent of 50% from the inhibition curve obtained by reacting 0.2 nM ^125I-angiotensin IV with the test compound at various concentrations.
row,Molecule,IC50
1,"CC[C@H](C)[C@H](CCc1ccccc1)NC(=O)[C@H](Cc1ccc(O)cc1)NC(=O)[C@@H](N)C(C)C [Example 59, (3S,4S)-N'-(L-valyl)-N-(4-methyl-1-phenylhexan-3-yl)-L-tyrosinamide hydrochloride]",26.5 nM
2,L-valyl-L-tyrosyl-N-(4-pyridylmethyl)-L-isoleucinamide [Example 9],5.99 nM

# Next, values leading:
row,IC50,Molecule
1,24.2 nM,"CCCC[C@H](N)C(=O)N[C@@H](Cc1ccc(O)cc1)C(=O)N[C@@H](CCc1ccc(C)cc1)[C@@H](C)CC [Example 61, (3S,4S)-N'-(L-norleucyl)-N-[4-methyl-1-(4-methylphenyl)-1-hexan-3-yl]-L-tyrosinamide hydrochloride]"
2,12.6 nM,N'-[N-(L-norleucyl)-N^im-benzyl-L-histidyl]-N-(2-phenylethyl)-L-leucinamide dihydrochloride [Example 33]
3,0.4 nM,N'-[N-[L-2-amino-3-(ethylthio)propionyl]-L-tyrosyl]-N-(2-phenylethyl)-L-leucinamide hydrochloride [Example 18]
